Assay results published in patent US5883243A, “Non-reducing saccharides, their preparations and uses” (Kabushiki Kaisha Hayashibara Seibutsu Kagaku Kenkyujo, priority 1997, dated 1999).

Assays:
[1] = test system: Bifidobacterium adolescentis JCM 1275; assay: Assimilation test by intestinal microorganism; format: cell-based; details: 0.5 w/v % saccharide in PYF broth, 37° C., 96 hours
[2] = test system: Bifidobacterium animalis JCM 1190; assay: Assimilation test by intestinal microorganism; format: cell-based; details: 0.5 w/v % saccharide in PYF broth, 37° C., 96 hours
[3] = test system: Bifidobacterium bifidum JCM 1255; assay: Assimilation test by intestinal microorganism; format: cell-based; details: 0.5 w/v % saccharide in PYF broth, 37° C., 96 hours
[4] = test system: Bifidobacterium breve JCM 1192; assay: Assimilation test by intestinal microorganism; format: cell-based; details: 0.5 w/v % saccharide in PYF broth, 37° C., 96 hours
[5] = test system: Bifidobacterium infantis JCM 1222; assay: Assimilation test by intestinal microorganism; format: cell-based; details: 0.5 w/v % saccharide in PYF broth, 37° C., 96 hours
[6] = test system: Bifidobacterium longum JCM 1217; assay: Assimilation test by intestinal microorganism; format: cell-based; details: 0.5 w/v % saccharide in PYF broth, 37° C., 96 hours
[7] = test system: Lactobacillus fermentum IFO 3959; assay: Assimilation test by intestinal microorganism; format: cell-based; details: 0.5 w/v % saccharide in PYF broth, 37° C., 96 hours
[8] = test system: Lactobacillus plantarum IFO 3070; assay: Assimilation test by intestinal microorganism; format: cell-based; details: 0.5 w/v % saccharide in PYF broth, 37° C., 96 hours
[9] = test system: Eubacterium aerofaciens ATCC 25986; assay: Assimilation test by intestinal microorganism; format: cell-based; details: 0.5 w/v % saccharide in PYF broth, 37° C., 96 hours
[10] = test system: Bacteroides distasonis JCM 5825; assay: Assimilation test by intestinal microorganism; format: cell-based; details: 0.5 w/v % saccharide in PYF broth, 37° C., 96 hours
[11] = test system: Bacteroides vulgatus JCM 5826; assay: Assimilation test by intestinal microorganism; format: cell-based; details: 0.5 w/v % saccharide in PYF broth, 37° C., 96 hours
[12] = test system: Bacteroides uniformis JCM 5828; assay: Assimilation test by intestinal microorganism; format: cell-based; details: 0.5 w/v % saccharide in PYF broth, 37° C., 96 hours
[13] = test system: Clostridium butyricum JCM 1391; format: cell-based; details: 0.5 w/v % saccharide in PYF broth, 37° C., 96 hours
[14] = test system: Clostridium perfringens JCM 3816; format: cell-based; details: 0.5 w/v % saccharide in PYF broth, 37° C., 96 hours
[15] = test system: Clostridium ramosum JCM 1298; assay: Assimilation test by intestinal microorganism; format: cell-based; details: 0.5 w/v % saccharide in PYF broth, 37° C., 96 hours
[16] = test system: Clostridium sporogenes JCM 1416; assay: Assimilation test by intestinal microorganism; format: cell-based; details: 0.5 w/v % saccharide in PYF broth, 37° C., 96 hours, free of sugar: ±
Method: (§1) To evaluate the growth rate of and to judge the assimilability by the microorganisms, the resultant broth was diluted 5-fold, and the turbidity of the dilution was measured at a wavelength of 750 nm in a 1-cm light-path cell. […] The criteria were in Table 3, and the results were in Tables 4 and 5: […]

[17] = test system: Streptococcus faecalis IAM 10065; assay: Assimilation test by intestinal microorganism; format: cell-based; details: 0.5 w/v % saccharide in PYF broth, 37° C., 96 hours
[18] = test system: Peptostreptococcus prevotii ATCC 9321; assay: Assimilation test by intestinal microorganism; format: cell-based; details: 0.5 w/v % saccharide in PYF broth, 37° C., 96 hours
[19] = test system: Escherichia coli IFO 3301; assay: Assimilation test by intestinal microorganism; format: cell-based; details: 0.5 w/v % saccharide in PYF broth, 37° C., 96 hours
[20] = test system: Streptococcus sobrinus ATCC 27351; assay: Acid formation by dental caries-inducing microorganisms; details: living wet cells, 0.02M saccharide, Stephen buffer pH 7.0, 37° C.; for pH at each fermentation time (min): 0: 0 min; for pH at each fermentation time (min): 5: 5 min; for pH at each fermentation time (min): 15: 15 min; for pH at each fermentation time (min): 30: 30 min; for pH at each fermentation time (min): 60: 60 min; for pH at each fermentation time (min): 90: 90 min
[21] = Maillard reaction (coloration with glycine); format: physicochemical; details: 10 w/v % saccharide, one w/v % glycine, 50 mM phosphate buffer pH 7.0, 100° C., 90 min; 1-cm cell
bifid bacteria = assay: Assimilation test by intestinal microorganism, overall judgement; format: cell-based; details: results of Tables 4 and 5
Method: as §1

[22] = test system: crude glucosyltransferase specimen derived from Streptococcus sobrinus strain (ATCC 27351); assay: Inhibition of insoluble glucan formation by glucosyltransferase from dental caries-inducing microorganism; format: biochemical; details: sucrose plus test saccharide (one ml of one w/v % each), pH 6.8, 37° C., 16 hours
Method: To a mixture solution consisting of one ml of one w/v % sucrose solution, one ml of one w/v % of a test saccharide solution, and 1.5 ml of 0.1M phosphate buffer (pH 6.8) was added 0.5 ml solution containing a crude glucosyltransferase specimen in a total protein content of 10 mg, and the mixture solution was placed in a small test tube which was then fixed and slanted to give a grade 30 degrees and allowed to react at 37° C. for 16 hours. The reaction mixture was transferred gently to another test tube and mixed with a solution obtained by washing carefully with 4 ml water the remaining substances adhered to the inner walls of the small test tube, and the mixture solution was centrifuged to obtain a precipitate as a non-adsorbed glucan. The amounts of the adsorbed- and non-adsorbed glucans thus obtained were respectively quantified by the anthrone-sulfuric acid method, and the total amount of them was regarded as the amount of the formed insoluble glucans. As a control system, a reaction system using water in place of the test saccharide solution, i.e. a reaction system using sucrose as a saccharide, was provided.

[23] = test system: Enzyme from small intestinal mucus membrane; details: enzymes of small intestinal mucus membranes

| SMILES | Judgement of assimilation (turbidity at a wavelength of 750 nm × 5) [1] | Judgement of assimilation (turbidity at a wavelength of 750 nm × 5) [2] | Judgement of assimilation (turbidity at a wavelength of 750 nm × 5) [3] | Judgement of assimilation (turbidity at a wavelength of 750 nm × 5) [4] | Judgement of assimilation (turbidity at a wavelength of 750 nm × 5) [5] | Judgement of assimilation (turbidity at a wavelength of 750 nm × 5) [6] | Judgement of assimilation (turbidity at a wavelength of 750 nm × 5) [7] | Judgement of assimilation (turbidity at a wavelength of 750 nm × 5) [8] | Judgement of assimilation (turbidity at a wavelength of 750 nm × 5) [9] | Judgement of assimilation (turbidity at a wavelength of 750 nm × 5) [10] | Judgement of assimilation (turbidity at a wavelength of 750 nm × 5) [11] | Judgement of assimilation (turbidity at a wavelength of 750 nm × 5) [12] | Judgement of assimilation (turbidity at a wavelength of 750 nm × 5) [13] | Judgement of assimilation (turbidity at a wavelength of 750 nm × 5) [14] | Judgement of assimilation (turbidity at a wavelength of 750 nm × 5) [15] | Judgement of assimilation (turbidity at a wavelength of 750 nm × 5) [16] | Judgement of assimilation (turbidity at a wavelength of 750 nm × 5) [17] | Judgement of assimilation (turbidity at a wavelength of 750 nm × 5) [18] | Judgement of assimilation (turbidity at a wavelength of 750 nm × 5) [19] | pH at each fermentation time (min): 0 [20] | other results |
| --- | --- | --- | --- | --- | --- | --- | --- | --- | --- | --- | --- | --- | --- | --- | --- | --- | --- | --- | --- | --- | --- |
| O=C[C@H](O)[C@@H](O)[C@H](O)[C@H](O)CO [A, glucose, reference compound] | +++ (0.3 or higher) | +++ (0.3 or higher) | ++ (0.2 or higher but less than 0.3) | ++ (0.2 or higher but less than 0.3) | ++ (0.2 or higher but less than 0.3) | +++ (0.3 or higher) | ++ (0.2 or higher but less than 0.3) | ++ (0.2 or higher but less than 0.3) | +++ (0.3 or higher) | ++ (0.2 or higher but less than 0.3) | + (0.15 or higher but less than 0.2) | ++ (0.2 or higher but less than 0.3) | +++ (0.3 or higher) | +++ (0.3 or higher) | + (0.15 or higher but less than 0.2) | + (0.15 or higher but less than 0.2) | ++ (0.2 or higher but less than 0.3) | + (0.15 or higher but less than 0.2) | + (0.15 or higher but less than 0.2) |  |  |
| OC[C@H]1O[C@H](OC[C@H]2OC(O)[C@H](O)[C@@H](O)[C@@H]2O)[C@H](O)[C@@H](O)[C@@H]1O (some centres unmarked) [Isomaltose, isomaltose, reference compound] | +++ (0.3 or higher) | +++ (0.3 or higher) | + (0.15 or higher but less than 0.2) | +++ (0.3 or higher) | +++ (0.3 or higher) | ++ (0.2 or higher but less than 0.3) | - (Less than 0.1) | - (Less than 0.1) | + (0.15 or higher but less than 0.2) | + (0.15 or higher but less than 0.2) | - (Less than 0.1) | - (Less than 0.1) |  | ± (0.1 or higher but less than 0.15) | - (Less than 0.1) | ± (0.1 or higher but less than 0.15) | + (0.15 or higher but less than 0.2) | - (Less than 0.1) | - (Less than 0.1) | 7.0 | pH at each fermentation time (min): 5 [20]: 7.0; pH at each fermentation time (min): 15 [20]: 6.9; pH at each fermentation time (min): 30 [20]: 6.9; pH at each fermentation time (min): 60 [20]: 6.8; pH at each fermentation time (min): 90 [20]: 6.7 |
| OC[C@H]1O[C@H](OC[C@H]2O[C@H](OC[C@H]3O[C@H](O[C@H]4O[C@H](CO)[C@@H](O)[C@H](O)[C@H]4O)[C@H](O)[C@@H](O)[C@@H]3O)[C@H](O)[C@@H](O)[C@@H]2O)[C@H](O)[C@@H](O)[C@@H]1O [α-Isomaltotriosyl α-glucoside, O-α-D-glucopyranosyl-(1→6 )-O-α-D-glucopyranosyl-(1→6)-α-D-glucopyranosyl α-D-glucopyrandside] | +++ (0.3 or higher) | +++ (0.3 or higher) | ++ (0.2 or higher but less than 0.3) | +++ (0.3 or higher) | ++ (0.2 or higher but less than 0.3) | +++ (0.3 or higher) | - (Less than 0.1) | - (Less than 0.1) | - (Less than 0.1) | - (Less than 0.1) | - (Less than 0.1) | - (Less than 0.1) | +++ (0.3 or higher) |  | - (Less than 0.1) |  | - (Less than 0.1) | ± (0.1 or higher but less than 0.15) | - (Less than 0.1) | 7.0 | Coloration degree (at a wavelength of 480 nm) [21]: 0.019; Selective assimilability by bifid bacteria, in words (bifid bacteria): high in the selective assimilability by bifid bacteria; Yield of non-adsorbed glucans ([22]; sucrose alone 923): 269 µg/mL; Yield of adsorbed glucans ([22]; sucrose alone 1,160): 66 µg/mL; Digestibility, judgement in words [23]: relatively-low in digestibility; pH at each fermentation time (min): 5 [20]: 7.0; pH at each fermentation time (min): 15 [20]: 6.9; pH at each fermentation time (min): 30 [20]: 6.9; pH at each fermentation time (min): 60 [20]: 6.9; pH at each fermentation time (min): 90 [20]: 6.9 |
